# US7964647B2 (Mutual Pharmaceutical Company, Inc., priority 2007, dated 2011)
# Like-named read-outs stand apart in the source and are kept apart here.
# Experiments:
# [1] = system: patients with acute gout flare (acute gouty arthritic attack); assay: Same acute gout flare study: safety (treatment emergent adverse events); type: in vivo, human
# Description: A sufficient number of patients are screened to enroll and randomize 300 patients (100 patients per treatment group) who meet the criteria of the American College of Rheumatology (ACR) for acute arthritis of gout. […] Secondary objectives of the study are to compare low-dose and standard-dose dosing regimens of colchicine with respect to pain, time to response and complete pain relief, interference with sleep, and signs and symptoms of inflammation and to determine the safety of colchicine when administered in the two different dosing regimens.
# Safety assessments will be made based on patient and Investigator inputs. Patients will be initially screened in the clinic for inclusion by review of medical history and concomitant medication use, physical examination, measurement of vital signs (oral temperature, sitting radial or brachial pulse rate, respiratory rate, and sitting blood pressure), body weight, and clinical laboratory testing (serum biochemistry, complete blood count, and urinalysis). After randomization, clinical laboratory tests, concomitant medication use, medical history and current complaints (AE) will be reviewed every 3 months until an acute gout flare occurs in order to ensure continued eligibility. Compliance with key inclusion/exclusion criteria (based on intervening medical history and concomitant medication use) will be re confirmed by the Gout Flare Call Center prior to authorizing the start of study drug. Following the start of study drug, patients will record any severe gastrointestinal AEs on their diaries and these will be recorded in the Case Report Form (CRF) at each clinic visit. Full physical examinations and clinical laboratory testing will be conducted at the final clinic visit (Visit 4 or Visit 5). Vital signs and body weight will be measured at each Post Flare visit (Visit 3 and 4 or 5). For those patients in whom there is an unresolved AE or clinically significant treatment emergent laboratory abnormality, there will be one additional follow up visit 14 days post flare onset (Visit 6).
# Safety analysis will be performed by coding adverse events using a standardized medical dictionary and the incidence summarized by treatment group; tabulations will be prepared of all AEs as well as by relationship and by severity. Adverse events resulting in termination and events meeting regulatory criteria for seriousness will also be tabulated separately. Descriptive statistics (mean, median, standard deviation, and range) of clinical laboratory testing results and vital sign measurements will be generated for each treatment group and change from the most recent value prior to onset of the acute gout flare calculated; no inferential testing will be performed. Treatment emergent abnormalities on physical examination will be tabulated and listed by treatment group. By patient listings of all safety data and concomitant medication use will be generated.
# clinical = conditions: human, plasma, oral, 1.8 mg, N = 13; for Cmax: low-dose regimen 1.8 mg (2 x 0.6 mg, then 0.6 mg 1 hour later), fasting healthy adults; for Tmax / half-life: low-dose regimen 1.8 mg, healthy adults; for Tmax: time after the initial dose
# Description: This study was a single-center, single-period, open-label pharmacokinetic study conducted in healthy subjects under fasting conditions.
# Subjects received 2×0.6 mg tablets initially followed by 1×0.6 mg tablet 1 hour later.
# [2] = 0.6 mg b.i.d. x 10 days, after last dose (Day 25), healthy adults, N = 13
# [3] = single oral 0.6 mg dose, healthy adults, N = 13
smiles,measurement,setting,value
"COc1cc2c(c(OC)c1OC)-c1ccc(OC)c(=O)cc1[C@@H](NC(C)=O)CC2 [Colchicine, (−)-N-[(7S,12aS)-1,2,3,10-tetramethoxy-9-oxo-5,6,7,9-tetrahydrobenzo[a]heptalen-7-yl]-acetamide]",Patients with severe TEAE: Gout,"[1]; All colchicine, N = 126",0 n
same,Patients with severe TEAE: Metabolism and Nutrition Disorders,"[1]; All colchicine, N = 126",0 n
same,Number (%) of patients with a TEAE discontinuing study,"[1]; High dose 4.8 mg, N = 52",0 n (%)
same,Number (%) of patients with a treatment emergent SAE,"[1]; High dose 4.8 mg, N = 52",0 n (%)
same,Number (%) of patients with at least one TEAE,"[1]; High dose 4.8 mg, N = 52",40 (76.9) n (%)
same,Number (%) of patients with at least one mild TEAE,"[1]; High dose 4.8 mg, N = 52",15 (28.8) n (%)
same,Number (%) of patients with at least one moderate TEAE,"[1]; High dose 4.8 mg, N = 52",15 (28.8) n (%)
same,Number (%) of patients with at least one severe TEAE,"[1]; High dose 4.8 mg, N = 52",10 (19.2) n (%)
same,Total number of TEAEs,"[1]; High dose 4.8 mg, N = 52, safety population",85
same,Patients with at least one drug-related TEAE,"[1]; High dose, N = 52",38 (73.1) n (%)
same,Patients with drug-related TEAE: Diarrhea,"[1]; High dose, N = 52",38 (73.1) n (%)
same,Patients with drug-related TEAE: Gastro-intestinal Disorders,"[1]; High dose, N = 52",38 (73.1) n (%)
same,Patients with drug-related TEAE: Nausea,"[1]; High dose, N = 52",7 (13.5) n (%)
same,Patients with drug-related TEAE: Vomiting,"[1]; High dose, N = 52",8 (15.4) n (%)
same,Patients with severe TEAE: Diarrhea,"[1]; High dose, N = 52",19.2%
same,Patients with severe TEAE: Gout,"[1]; High dose, N = 52",0 n
same,Patients with severe TEAE: Metabolism and Nutrition Disorders,"[1]; High dose, N = 52",0 n
same,Number (%) of patients with a TEAE discontinuing study,"[1]; Low dose 1.8 mg, N = 74",0 n (%)
same,Number (%) of patients with a treatment emergent SAE,"[1]; Low dose 1.8 mg, N = 74",0 n (%)
same,Number (%) of patients with at least one TEAE,"[1]; Low dose 1.8 mg, N = 74",27 (36.5) n (%)
same,Number (%) of patients with at least one mild TEAE,"[1]; Low dose 1.8 mg, N = 74",19 (25.7) n (%)
same,Number (%) of patients with at least one moderate TEAE,"[1]; Low dose 1.8 mg, N = 74",8 (10.8) n (%)
same,Number (%) of patients with at least one severe TEAE,"[1]; Low dose 1.8 mg, N = 74",0 n (%)
same,"Number (%) of patients with at least one treatment-emergent gastrointestinal AE, captured on Adverse Event CRF, All","[1]; Low dose 1.8 mg, N = 74",19 (25.7) Number (%)
same,"Number (%) of patients with at least one treatment-emergent gastrointestinal AE, captured on Adverse Event CRF, Severe","[1]; Low dose 1.8 mg, N = 74",0 Number (%)
same,"Number (%) of patients with at least one treatment-emergent gastrointestinal AE, captured on Patient Diary or Adverse Event CRF, All","[1]; Low dose 1.8 mg, N = 74",33 (44.6) Number (%)
same,"Number (%) of patients with at least one treatment-emergent gastrointestinal AE, captured on Patient Diary or Adverse Event CRF, Severe","[1]; Low dose 1.8 mg, N = 74",3 (4.1) Number (%)
same,"Number (%) of patients with at least one treatment-emergent gastrointestinal AE, captured on Patient Diary, Severe","[1]; Low dose 1.8 mg, N = 74",3 (4.1) Number (%)
same,Total number of TEAEs,"[1]; Low dose 1.8 mg, N = 74, safety population",34
same,Patients with at least one severe TEAE (any),"[1]; Low dose, N = 74",0 n
same,Patients with drug-related TEAE: Diarrhea,"[1]; Low dose, N = 74",21.6%
same,Patients with drug-related TEAE: Gastro-intestinal Disorders,"[1]; Low dose, N = 74",24.3%
same,Patients with drug-related TEAE: Vomiting,"[1]; Low dose, N = 74",0 n
same,Patients with severe TEAE: Diarrhea,"[1]; Low dose, N = 74",0 n
same,Patients with severe TEAE: Gastrointestinal Disorders,"[1]; Low dose, N = 74",0 n
same,Patients with severe TEAE: Gout,"[1]; Low dose, N = 74",0 n
same,Patients with severe TEAE: Melaena,"[1]; Low dose, N = 74",0 n
same,Patients with severe TEAE: Metabolism and Nutrition Disorders,"[1]; Low dose, N = 74",0 n
same,Patients with severe TEAE: Musculoskeletal and Connective Tissue Disorders,"[1]; Low dose, N = 74",0 n
same,Patients with severe TEAE: Nausea,"[1]; Low dose, N = 74",0 n
same,Patients with severe TEAE: Pain in Extremity,"[1]; Low dose, N = 74",0 n
same,"Number (%) of patients with at least one treatment-emergent gastrointestinal AE, captured on Adverse Event CRF, All","[1]; Standard dose 4.8 mg, N = 52",40 (76.9)^2 Number (%)
same,"Number (%) of patients with at least one treatment-emergent gastrointestinal AE, captured on Adverse Event CRF, Severe","[1]; Standard dose 4.8 mg, N = 52",10 (19.2) Number (%)
same,"Number (%) of patients with at least one treatment-emergent gastrointestinal AE, captured on Patient Diary or Adverse Event CRF, All","[1]; Standard dose 4.8 mg, N = 52",49 (94.2)^2 Number (%)
same,"Number (%) of patients with at least one treatment-emergent gastrointestinal AE, captured on Patient Diary or Adverse Event CRF, Severe","[1]; Standard dose 4.8 mg, N = 52",18 (34.6) Number (%)
same,"Number (%) of patients with at least one treatment-emergent gastrointestinal AE, captured on Patient Diary, All","[1]; Standard dose 4.8 mg, N = 52",48 (92.3)^2 Number (%)
same,"Number (%) of patients with at least one treatment-emergent gastrointestinal AE, captured on Patient Diary, Severe","[1]; Standard dose 4.8 mg, N = 52",13 (25.0) Number (%)
same,Proportion of patients with vomiting,[1]; high-dose 4.8 mg,15.4%
same,Occurrence of severe diarrhea,[1]; low-dose group 1.8 mg,not occurring
same,Occurrence of vomiting,[1]; low-dose group 1.8 mg,not occurring
same,Proportion of patients with diarrhea,[1]; standard dose 4.8 mg,73.1%
same,Proportion of patients with gastrointestinal side effects,[1]; standard dose 4.8 mg,73.1%
same,"AUC0-inf, MAX",[2],67.94465 ng·h/mL
same,"AUC0-inf, MEAN",[2],54.19877 ng·h/mL
same,"AUC0-inf, MEDIAN",[2],54.11343 ng·h/mL
same,"AUC0-inf, MIN",[2],37.59976 ng·h/mL
same,"AUC0-t, MAX",[2],58.26535 ng·h/mL
same,"AUC0-t, MEAN",[2],43.57696 ng·h/mL
same,"AUC0-t, MEDIAN",[2],41.9251 ng·h/mL
same,"AUC0-t, MIN",[2],29.32878 ng·h/mL
same,"AUC0-τ, MAX",[2],36.08395 ng·h/mL
same,"AUC0-τ, MIN",[2],20.79198 ng·h/mL
same,"Cave, MAX",[2],1.5035 ng/mL
same,"Cave, MEAN",[2],1.21068 ng/mL
same,"Cave, MEDIAN",[2],1.18551 ng/mL
same,"Cave, MIN",[2],0.86633 ng/mL
same,"Cmax, MAX",[2],4.957 ng/mL
same,"Cmax, MEAN",[2],3.55315 ng/mL
same,"Cmax, MEDIAN",[2],3.734 ng/mL
same,"Cmax, MIN",[2],1.977 ng/mL
same,"Cmin, MAX",[2],1.14967 ng/mL
same,"Cmin, MEDIAN",[2],0.9035 ng/mL
same,"Cmin, MIN",[2],0.63623 ng/mL
same,"Kel, MAX",[2],0.03 h⁻¹
same,"Kel, MEAN",[2],0.03 h⁻¹
same,"Kel, MEDIAN",[2],0.03 h⁻¹
same,"Kel, MIN",[2],0.02 h⁻¹
same,"T1/2, MAX",[2],33.65 h
same,"T1/2, MEDIAN",[2],26.51 h
same,"T1/2, MIN",[2],20.82 h
same,"Tmax, MAX",[2],3.00 h
same,"Tmax, MEAN",[2],1.31 h
same,"Tmax, MIN",[2],0.50 h
same,"AUC0-inf, MAX",[3],23.83848 ng·h/mL
same,"AUC0-inf, MIN",[3],7.25266 ng·h/mL
same,"AUC0-t, MAX",[3],18.12865 ng·h/mL
same,"AUC0-t, MIN",[3],4.81288 ng·h/mL
same,"Cmax, MAX",[3],3.977 ng/mL
same,"Cmax, MIN",[3],1.584 ng/mL
same,"Kel, MAX",[3],0.2443 h⁻¹
same,"Kel, MEAN",[3],0.1829 h⁻¹
same,"Kel, MEDIAN",[3],0.1992 h⁻¹
same,"Kel, MIN",[3],0.0359 h⁻¹
same,"T1/2, MAX",[3],19.29 h
same,"T1/2, MIN",[3],2.84 h
same,"Tmax, MAX",[3],3.00 h
same,Cmin prior to the morning dose higher than Cmin prior to the evening dose,"steady state, Day 23 and Day 24",approximately 12%
same,Cmax,clinical; MEAN,6.19 ng/mL
same,Cmax,clinical; MEDIAN,5.68 ng/mL
same,Tmax,clinical; MEAN,1.81 h
same,Tmax,clinical; MEDIAN,2 h
same,half-life,"clinical; t1/2, MEAN",23.6 h
same,half-life,"clinical; t1/2, MEDIAN",21.6 h
